In article PMC11847324, “A communication hub for phosphoregulation of kinetochore-microtubule attachment” (Current biology : CB, 2024):

Key:
Ndc80c^dwarf [1] = experiment: Fluorescence polarization competition, reporter Bodipy-FL Mps1(137–171); format: binding, S. cerevisiae
Excerpt: We measured by fluorescence polarization the affinity of Ndc80^dwarf, a shortened version of Ndc80c[51], for a peptide comprising Mps1 residues 137–171, plus a C-terminal cysteine for labeling. We labeled the peptide with the Bodipy fluorophore and determined fluorescence anisotropy as a function of Ndc80c^dwarf concentration (Figure 3A). We then used unlabeled wild-type and mutant peptides in a competition format, at a fixed Ndc80c^dwarf concentration (Figures 3B,C). The mutant peptides corresponded to mutations characterized in one of the accompanying papers. […] Mutating either the basic residues or the hydrophobic residues in the first part of the consensus motif or the conserved arginine at the end of the second part lowered affinity (raised the Ki) by roughly two logs; mutating both the final arginine and the hydrophobic residues eliminated any detectable competition.
(§1) Figure 3. Fluorescence polarization measurements of Ndc80c^dwarf binding peptides from the N-terminal extensions of Mps1 and Ipl1. (A) Polarization of fluorescence from 20 nM Bodipy-FL Mps1(137–171) (Mps1 residues 137–171 plus a C-terminal cysteine modified with Bodipy-FL -- see Methods) and Bodipy-FL Ipl1 (26–39;45–59) as a function of Ndc80c^dwarf concentration. (B) Competition binding experiment: unlabeled competitor peptides (see figure annotation) were added in twofold serial dilutions to Bodipy-FL Mps1(137–171) and Ndc80c^dwarf at final concentrations of 20 nM and 500 nM respectively. Loss of polarization indicates displacement of bound Bodipy-FL Mps1(137–171) by the competitor. (C) As in (B), with competitor Mps1(137–171) peptides containing mutations that reduce affinity for Ndc80c[40]. (D) Polarization of fluorescence from 20 nM Bodipy-FL Mps1(137–171) as a function of the concentration of Ndc80c^dwarf bearing mutations in Nuf2 that interfere with its Mps1 interaction in cells. (E) As in (B), but with 20 nM Bodipy-FL Ipl1 (26–39;45–59) as the fluorescent reporter and 27μM Ndc80c^dwarf. […] For the Ipl1 peptide, the second copy of the motif, not used for the fluorescence polarization experiments, is shown in the bottom line.
Mps1 (137–171), Ipl1 (26–39;45–59), and Dam1 (254–270;290–305) peptides with added C-terminal cysteines, were synthesized by the Tufts University Core Facility. […] Fluorescence polarization was measured at 25°C with an Envision plate reader (Perkin Elmer) equipped with a filter set optimized for fluorescence polarization of FITC, which has the same absorption and emission spectra as those of Bodipy FL. […] Fluorescence polarization was measured in triplicate. […] An equal volume of a buffer-matched solution containing 40 nM Bodipy-FL labelled peptide and 1 μM Ndc80c^dwarf was added to each of the dilutions, and fluorescence polarization was measured in triplicate. […]

Ndc80c^dwarf [2] = experiment: Fluorescence polarization competition, reporter Bodipy-FL Ipl1 (26–39;45–59); format: binding, S. cerevisiae; settings: 20 nM Bodipy-FL Ipl1 (26–39;45–59), 27μM Ndc80c^dwarf; competitor in twofold serial dilutions; 25°C; Figure 3E
Method: as §1, with “(B) Competition binding experiment: unlabeled competitor peptides (see figure annotation) were added in twofold serial dilutions to Bodipy-FL Mps1(137–171) and Ndc80c^dwarf at final concentrations of 20 nM and 500 nM respectively.” left out, “cells.” for “cells. (E) As in (B), but with 20 nM Bodipy-FL Ipl1 (26–39;45–59) as the fluorescent reporter and 27μM Ndc80c^dwarf.”
We measured the Ipl1 peptide affinity, both directly (Figure 3A) and by measuring displacement of a fluorophore-labeled Mps1 peptide (Figure 3B) as a function of increasing concentrations of unlabeled Ipl1 peptide. […]
Mps1 (137–171), Ipl1 (26–39;45–59), and Dam1 (254–270;290–305) peptides with added C-terminal cysteines, were synthesized by the Tufts University Core Facility. […] Fluorescence polarization was measured in triplicate. […]

Ndc80c^dwarf, sequence (P33895 1-150): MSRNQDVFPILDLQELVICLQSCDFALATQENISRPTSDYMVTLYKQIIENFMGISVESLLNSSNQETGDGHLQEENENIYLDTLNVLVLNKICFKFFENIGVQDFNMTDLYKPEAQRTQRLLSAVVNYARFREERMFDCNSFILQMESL
Ndc80c^dwarf, sequence (P40460 115-310, further chain): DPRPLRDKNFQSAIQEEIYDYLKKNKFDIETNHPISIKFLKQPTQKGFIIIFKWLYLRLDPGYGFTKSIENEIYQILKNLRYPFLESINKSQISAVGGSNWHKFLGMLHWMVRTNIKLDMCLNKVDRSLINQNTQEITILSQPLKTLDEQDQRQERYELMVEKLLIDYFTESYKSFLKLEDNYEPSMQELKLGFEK

Q: How did the “displacement of bound Bodipy-FL Mps1(137–171) by unlabeled competitor peptide” value (Ndc80c^dwarf [1]; 20 nM Bodipy-FL Mps1(137–171), 500 nM Ndc80c^dwarf, competitor in twofold serial dilutions, 20 mM Tris pH 7.2, 100 mM NaCl, 2 mM TCEP, 25°C, triplicate, Figures 3B,C) turn out when “RQNMKEDITAKYAERRSKRFLISNRTTKLGPAKRAC [Mps1 (137–171), peptide comprising Mps1 residues 137–171, plus a C-terminal cysteine for labeling]” was run?
A: The value was “displaced the fluorescent Mps1 peptide, at a concentration consistent with the affinity measured by direct titration”.

Q: What about the “relative affinity of peptides for Ndc80c^dwarf (comparison in words)” value (Ndc80c^dwarf [1]; direct titration (Figure 3A) and competition with Bodipy-FL Mps1(137–171) (Figure 3B)) of the same sequence?
A: The value was “nearly the same”.

Q: What about the “displacement of Bodipy-FL Ipl1 (26–39;45–59) by unlabeled competitor peptide” value (Ndc80c^dwarf [2]) of the same sequence?
A: The value was “competed strongly”.
